We go through 18 molecules from patent publication US7795305B2, “CDDO-compounds and combination therapies thereof” (Board of Regents, The University of Texas System, priority 2000, dated 2010).

For data set [1] the following is noted: cited from earlier work.
In data set [2] the test system is HL-60 cells. Briefly: Differentiation by CD11b/CD14 flow cytometry. Type of data set: cell-based, human. The method, then: Immunophenotyping. The PE-conjugated anti-CD11b, FITC-conjugated anti-CD14 monoclonal antibody (mAb) (Becton Dickinson) and PE-conjugated anti-CD95 mAb (PharMingen) were used at a 1/10 dilution.
Enhancement in cellular differentiation using combinations of CDDO with ATRA were tested. […] Cell differentiation was analyzed by flow cytometry (CD14/CD11b staining). […] These experiments were repeated. […]
Finally, the inventors examined if CDDO-Me combined with ATRA would enhance differentiation. […] […] Next, combined treatment with CDDO-Me and RXR-specific ligand were tested for potentiation of anti-leukemic effects.
Background: In flow cytometry, cells or beads pass a laser one at a time.

The conditions of data set [3]: cited from earlier work; for terminal half-life: plasma; for peak concentration in plasma: usual clinical doses.
The subject of data set [4] is HL-60 cells. As to the kind of experiment: Differentiation by CD11b/CD14 flow cytometry. Format: cell-based, human. The following applies: 7 days.
In data set [5] the test system is HL-60 cells. Briefly: Viable cell count of leukemic cells in suspension culture (Trypan blue). Format: cell-based, human. The following applies: Homo sapiens, HL-60, read-out: concentration required for 50% inhibition of HL-60 cells; PPARγ ligands compared to CDDO. The method, then:
(§1) Suspension culture of leukemic cells. Leukemic cell lines were cultured at a density of 3.0×10^5 cells/mL, and AML mononuclear cells at 5×10^5 cells/mL in the presence or absence of indicated concentrations of CDDO-Me. Appropriate amounts of DMSO (final concentration<0.05%) was included as a control. For cytotoxicity studies, 1 μM ara-C was added to the cultures.
CDDO. […] The percentage of proliferating cells were analyzed by FCM.
CDDO-Me. […] Mechanism of growth inhibition was analyzed on cell cycle and apoptosis in HL-60 cells.

Another data set concerns primary AML samples. Briefly: Annexin V staining of primary AML samples exposed to PPARγ ligands. Format: cell-based, human. The following applies: 72 hrs; 15d-PGJ2 5 μM; BRL49653, L-805645, GW347845X 25 μM. The method, then: Annexin V staining. Cells were washed in phosphate-buffered saline (PBS) and resuspended in 100 μl of binding buffer containing Annexin V (Roche Diagnostic Corporation, Indianapolis, Ind.). Cells were analyzed by flow cytometry after the addition of propidium iodide (PI). Annexin V binds to those cells that express phosphatidylserine on the outer layer of the cell membrane, and PI stains the cellular DNA of those cells with a compromised cell membrane. This allows for live cells (unstained with either fluorochrome) to be discriminated from apoptotic cells (stained only with annexin V) and necrotic cells (stained with both annexin and PI).

Data set [6] concerns HL-60 cells. As to the kind of experiment: CDDO-Me plus LG-100268 in HL-60 cells (Table 6). Format: cell-based, human. The arrangement: unit not given here. The conditions noted are these: 24 hrs. The method, then: (§2) Finally, the inventors examined if CDDO-Me combined with ATRA would enhance differentiation. HL-60 cells were cultured with of 0.1 μM of CDDO-Me for 72 hrs, alone or in combination with 1 μM ATRA. […] At 48 hrs, 67.4% in CDDO-Me-treated cells and 63.5% in ATRA-treated cells were CD11b+ (compared with 40% in DMSO controls), while 85% of cells were positive when both compounds were given simultaneously. These studies were repeated 3 times and yielded essentially identical results. Next, combined treatment with CDDO-Me and RXR-specific ligand were tested for potentiation of anti-leukemic effects. RXR-specific ligand LG-100268 (Ligand Pharmaceuticals) used at 10, 100 nm and 1 μM enhanced killing of HL-60 cells in a dose-dependent manner (Table 6).

For data set [7], the system named is HL-60 cells. Briefly: Cell cycle (S+G2M) with RXR-specific ligand. Type of data set: cell-based, human. The following applies: 1 μM of LG-100268, combined treatment with CDDO-Me. The method, then:
Cell kinetic and DNA fragmentation studies. The cell cycle kinetics was determined by staining cells with acridine orange for cellular DNA and RNA content followed by flow cytometeric analysis as described. Samples were measured in a FACScan flow cytometer (Becton Dickinson, San Jose, Calif.) using the 488-nm line of a […] argon laser and filter settings for green (530 nm) (DNA) and red (585 nm) (RNA) fluorescence. Ten thousand events were stored in list mode for analysis. The percentage of cells in the “sub G1 peak” defined the proportion of apoptotic cells in the tested populations. […] Cell-cycle kinetics was analyzed using ModFit software (Verity Software House, Inc., Topsham, Me.).
as §2, with “RXR-specific ligand LG-100268 (Ligand Pharmaceuticals) used at 10, 100 nm and 1 μM enhanced killing of HL-60 cells in a dose-dependent manner (Table 6).” left out

The test system of a further data set is primary AML cells. Briefly: Apoptosis in primary AML samples, subG1 DNA flow cytometry. Format: cell-based, human. The conditions noted are these: ara-C 1 μM, alone or combined. On the procedure:
Subjects. Samples of bone marrow or peripheral blood were obtained for in vitro studies from patients with newly diagnosed or recurrent AML with high (>70%) blast count and from patients with myeloid transformation of chronic myeloid leukemia (CML). Informed consent was obtained following institutional guidelines. Mononuclear cells were separated by Ficoll-Hypaque (Sigma Chemical Co) density-gradient centrifugation.
as §1
Cell kinetic and DNA fragmentation studies. The cell cycle kinetics was determined by staining cells with acridine orange for cellular DNA and RNA content followed by flow cytometeric analysis as described. […] Ten thousand events were stored in list mode for analysis. The percentage of cells in the “sub G1 peak” defined the proportion of apoptotic cells in the tested populations. […] Cell-cycle kinetics was analyzed using ModFit software (Verity Software House, Inc., Topsham, Me.). […]

For data set [8] the following is noted: cited from earlier work. The source holds these as a separate data set.

Structures can show the parent of a compound that is named as a salt. Numbered stars: 1 amine (or outer) side, 2 acyl side, 3 side chain; on linkers, the order of the positions; unused ones are H or OH. Bridge positions count the residues as written; N and C are the ends. Square brackets hold non-standard residues; d marks the D form. Peptide text beside a SMILES is read from it. I, II: the chains in the order shown. Actinocin(9to1) = Cc1c2oc3c(C)ccc(C(=O)[*:1])c3nc-2c(C(=O)[*:2])c(N)c1=O; NMeV = CN[C@H](C(=O)O)C(C)C; Sar = CNCC(=O)O

Consider `CC1=C(/C=C/C(C)=C/C=C/C(C)=C/C(=O)O)C(C)(C)CCC1` [ATRA, all-trans-retinoic acid, reference compound], for which, in [1] (acute promyelocytic leukemia (Warrell et al., 1991)), the “patients achieving complete remissions” value is recorded as “over 90%”. For the same molecule, in the data set on HL-60 cells [2] (48 hrs, CDDO-Me 0.1 μM, ATRA 1 μM, alone or simultaneously (DMSO controls 40%)), the “CD11b+ cells” value worked out at 63.5%. For the same molecule, the “percentage of CD14 (+) live cells (FCM)” value with HL-60 cells [2] (CDDO 0, ligand 1 nM) is 4%; with HL-60 cells [2] (CDDO 0, ligand 10 nM), 5.2%; with HL-60 cells [2] (CDDO 0, ligand 100 nM), 4.4%.

Turning to `Cc1c2oc3c(C)ccc(C(=O)N[C@@H]4C(=O)N[C@H](C(C)C)C(=O)N5CCC[C@H]5C(=O)N(C)CC(=O)N(C)[C@@H](C(C)C)C(=O)O[C@@H]4C)c3nc-2c(C(=O)N[C@@H]2C(=O)N[C@H](C(C)C)C(=O)N3CCC[C@H]3C(=O)N(C)CC(=O)N(C)[C@@H](C(C)C)C(=O)O[C@@H]2C)c(N)c1=O` [Actinomycin D] (I: T[dV]P[Sar][NMeV] / II: T[dV]P[Sar][NMeV]; ester I:1-I:C, II:1-II:C; linker I:N-II:N via Actinocin(9to1)), in [3] (in vivo), the elimination half-life entry is given as “about 36 hr”, the “fraction of dose excreted/recovered in the urine” value is on record as 10% and the “fraction secreted/excreted into the bile” value is on record as “Half of the dose”.

On to `CN(CCOc1ccc(CC2SC(=O)NC2=O)cc1)c1ccccn1` (centres unmarked) [BRL49653, rosiglitazone], for which the CD11b % in the data set with HL-60 cells [4] (10 μM (15d-PGJ2 column head prints M)) came to 38.9%; in the data set with HL-60 cells [4] (25 μM) it was 48.5%. Besides, the IC50 in the data set with HL-60 cells [5] fell in the range of 25 to 50 µM. In addition, in the data set with primary AML samples, the annexin-V-positive cells was determined as 7%.

Consider `O=C(O)CCCc1ccc(N(CCCl)CCCl)cc1` [Chlorambucil, 4-[bis(2-chlorethyl)amino] benzenebutanoic acid], for which the oral absorption result in data set [3] (in vivo) was “rapidly and completely absorbed”. Further, the terminal half-life in data set [3] is around 1.5 h.

With `N.N.[Cl][Pt][Cl]` [Cisplatin], the oral absorption entry in data set [3] (in vivo) is given as “not absorbed orally”.

Turning to `COc1cccc2c1C(=O)c1c(O)c3c(c(O)c1C2=O)C[C@@](O)(C(C)=O)C[C@@H]3O[C@H]1C[C@H](N)[C@H](O)[C@H](C)O1` [Daunorubicin, 5,12-Naphthacenedione, (8S-cis)-8-acetyl-10-[(3-amino-2,3,6-trideoxy-α-L-lyxo-hexanopyranosyl)oxy]-7,8,9,10-tetrahydro-6,8,11-trihydroxy-10-methoxy-, hydrochloride], in data set [3] (in vivo), the oral absorption result was “Oral absorption is poor”, the elimination half-life entry is recorded as “about 19 hr” and the “fraction secreted/excreted into the bile” value is recorded as around 40%.

`COc1cccc2c1C(=O)c1c(O)c3c(c(O)c1C2=O)C[C@@](O)(C(=O)CO)C[C@@H]3O[C@H]1C[C@H](N)[C@H](O)[C@H](C)O1` [Doxorubicin, 5,12-Naphthacenedione, (8s-cis)-10-[(3-amino-2,3,6-trideoxy-a-L-lyxo-hexopyranosyl)oxy]-7,8,9,10-tetrahydro-6,8,11-trihydroxy-8-(hydroxyacetyl)-1-methoxy-hydrochloride]: in data set [3] (in vivo), the oral absorption entry is on record as “absorbed poorly”, the elimination half-life entry was “about 30 hr” and the “fraction of dose excreted/recovered in the urine” value was “a few percent”.

For the molecule `Cc1cc2c(cc1C1(c3ccc(C(=O)O)cn3)CC1)C(C)(C)CCC2(C)C` [LG-100268], the “Table 6 value: CDDO-Me-induced monocytic differentiation in HL-60 cells” value in the data set on HL-60 cells [6] (CDDO-Me 0, LG-100268 10 nM) was determined as 6.8; in the data set on HL-60 cells [6] (CDDO-Me 0, LG-100268 100 nM) it was 6.2; in the data set with HL-60 cells [6] (CDDO-Me 0, LG-100268 1 μM), 6.3. In the data set on HL-60 cells [7], the “percentage of cells in S+G2M decreased by” value is 50%. Besides, the “percentage of CD14 (+) live cells (FCM)” value in the data set with HL-60 cells [2] (CDDO 0, ligand 1 nM) came to 16.6%; in the data set with HL-60 cells [2] (CDDO 0, ligand 10 nM) it was 9.6%; with HL-60 cells [2] (CDDO 0, ligand 100 nM), 9.4%.

On to `O=NN(CCCl)C(=O)NC1CCCCC1` [Lomustine, 1-(2-chloro-ethyl)-3-cyclohexyl-1 nitrosourea], for which the “radioactivity excreted as degradation products within 24 hours” value in [3] (oral radioactive lomustine 30 mg/m^2 to 100 mg/m^2) is given as “about half of the radioactivity”.

Regarding `N[C@@H](Cc1ccc(N(CCCl)CCCl)cc1)C(=O)O` [Melphalan, 4-[bis(2-chloroethyl)amino]-L-phenylalanine], in data set [1] (multiple myeloma, oral administration), the “patients with favorable response” value was “about one third to one half”.

For the molecule `CO[C@@]12[C@H](COC(N)=O)C3=C(C(=O)C(C)=C(N)C3=O)N1C[C@@H]1N[C@@H]12` [Mitomycin], the “time required to reduce the serum concentration by 50%” value in data set [3] (after 30 mg bolus injection) is 17 min. Further, the “fraction of dose excreted/recovered in the urine” value in data set [3] (in vivo) is on record as “Approximately 10%”.

As to `CC[C@]1(O)C[C@@H]2CN(CCc3c([nH]c4ccccc34)[C@@](C(=O)OC)(c3cc4c(cc3OC)N(C)[C@H]3[C@@](O)(C(=O)OC)[C@H](OC(C)=O)[C@]5(CC)C=CCN6CC[C@]43[C@@H]65)C2)C1` [Vinblastine], in data set [3] (in vivo), the “fraction of dose excreted/recovered in the urine” value was “Approximately 15%” and the “fraction recovered in the feces after biliary excretion” value is on record as “about 10%”. In data set [3], the “peak concentration in plasma” value was “approximately 0.4 mM”.

For `CC[C@]1(O)C[C@H]2CN(CCc3c([nH]c4ccccc34)[C@@](C(=O)OC)(c3cc4c(cc3OC)N(C=O)[C@H]3[C@@](O)(C(=O)OC)[C@H](OC(C)=O)[C@]5(CC)C=CCN6CC[C@]43[C@@H]65)C2)C1` [Vincristine], in data set [3], the terminal half-life result is listed as “about 24 hours” and the “peak concentration in plasma” value is “approximately 0.4 mM”.

Turning to `Nc1ccn([C@@H]2O[C@H](CO)[C@@H](O)[C@@H]2O)c(=O)n1` [ara-C, reference compound], the “apoptosis in AML samples” value with primary AML cells (CDDO 1 μM, n=23 (DMSO control 27.7±3.7%)) is 41.6±4.6%. Moreover, the “cell killing in AML samples” value in the data set with primary AML cells (CDDO-Me 1 μM, n=6 (DMSO control 24.9±7.4%)) is on record as 39.8±8.2%.

Take `CS(=O)(=O)OCCCCOS(C)(=O)=O` [busulfan, 1,4-butanediol dimethanesulfonate]: in data set [1] (previously untreated chronic myelogenous leukemia), the “adults obtaining hematologic remission” value was “Approximately 90%”.

For the molecule `COc1cccc2c1C(=O)c1c(O)c3c(c(O)c1C2=O)C[C@@](O)([C@H](C)O)C[C@@H]3O[C@H]1C[C@H](N)[C@H](O)[C@H](C)O1` [daunorubicinol], the elimination half-life result in data set [3] (in vivo) is given as “about 27 hr”.

On to Bleomycin, for which the “fraction of dose excreted/recovered in the urine” value in data set [3] (in vivo) was 60% to 70.

For the molecule “TRAIL: member of tumor necrosis factor family of cytokines”, the “effect of chemotherapy in mice bearing human colon carcinoma tumors” value in data set [8] (250-500 μg (Gliniak et al, 1999)) is “synergistically enhanced effect of chemotherapy”. Besides, the “survival of tumor-bearing mice” value in data set [8] (daily injections of 200-1000 μg (14 days) (Walczak et al., 1999)) is “significantly increased survival”.
